One series has as its system EAE. Kind of series: EAE relapse model, INT131 treatment begun at first remission. The class given is in vivo, mice. As to conditions: for clinical course from the 22nd day following immunization: treated from day 20, vehicle animals relapsed; for relapse rate (percent of animals relapsed): 25th day post-immunization, vehicle 72 percent. The source says: EAE is a well-characterized and widely used model of MS. It is one of the few animal models in which drug therapeutic activity in the model often mimics and anticipates the drug's effects in human disease. In this model, mice are immunized with well-defined antigenic fragments of central nervous system myelin, such as fragments of the proteolipid protein (PLP). Over the course of 2 to 3 weeks the immunized animals develop a clinical and histopathologic syndrome of T-cell mediated cerebral autoimmunity that is highly reminiscent of relapsing/remitting MS (RRMS). The similarities between EAE and RRMS include inflammatory cerebral infiltrated and accompanying Th1/Th17 responses to both the disease initiating myelin PLP peptide, and subsequent epitope spread, seen in disease relapse. The animals were immunized with the myelin peptide (PLP^139-151) and the spread epitope peptide (PLP^178-191) which drives disease relapse. Studies consisted of three experimental arms in which the mice were given daily ip injection of vehicle, or either 1 or 3 mg/kg/d of INT131. Following immunization, the animals underwent daily neurological evaluation by an experienced investigator. In these studies treatment began at the time of the first remission. […] Following the expected clinical disease peak at about two weeks post-immunization, symptoms began to ebb as the animals drifted into remission. All of the animals were treated with INT131 on day 20. By the 22nd day following immunization relapse began as expected, however, only in the vehicle treated animals.

Series [1] concerns infiltrating CD45-positive leukocytes. Kind of series: CD45-positive leukocyte infiltration in brainstem of EAE mice treated at the peak of disease. It is filed as in vivo. The source says:
Initiating INT131 treatment during remission extends the time subjects remain relapse-free, as compared to vehicle/placebo treatment. However, because there is little active neuroinflammation during remission, this paradigm is not informative about the effects of INT131 on acute neuroinflammation. To better understand the effects of INT131 on the acute inflammatory response we treated mice with EAE at the height of the clinical disease. […] INT131 treatment was begun at the peak of disease (day 20) and brainstems were harvested at day 32, and stained with αCD45 to identify infiltrating leukocytes. CD45 (also known as Leukocyte Common Antigen) is expressed on all hematopoietic cells except erythrocytes and platelets, and is required for B- and T cell-receptor-mediated activation. Thus, CD45 is critical in mediating the inflammatory process. […] These findings unify the clinical and histological findings that INT131 is a potent and effective treatment of acute neuroinflammation in this model of RRMS.

The nature of series [2]: Tissue distribution of [3H]INT131 after intraperitoneal injection (penetration of the intact BBB). It is filed as in vivo, Sprague-Dawley rats. As to conditions: for concentration at 6 h: 6 h after ~50 mg/kg ip; for concentration at 24 h: 24 h after ~50 mg/kg ip. The method, then: (§1) To test whether INT131 is able to penetrate the intact BBB INT131 was radiolabeled with tritium (“[^3H]INT131”), prior to intraperitoneal injection into adult Sprague-Dawley rats. The purity of the radiolabeled INT131 was determined by high-performance liquid chromatography (HPLC) fractionation prior to injection, and again at the close of the experiment. […] The test animals were sacrificed at 1, 6 and 24 hours after injection and blood, brain, cerebrospinal fluid (“CSF”), spinal cord, kidney, liver and small bowel were harvested for determination of [^3H]INT131 content by liquid scintillography.

Series [3] in a line: HPLC fractionation of radiolabeled INT131 before injection and at the close of the experiment. As to conditions: prior to injection and at the close of the experiment. It is filed as physicochemical. How it is done:
as §1

Setting [4] is: Sprague-Dawley, CSF, intraperitoneal, rat, read-out: INT131 concentration in CSF.
Setting [5] is: Sprague-Dawley, blood, intraperitoneal, rat, read-out: INT131 concentration in Blood.
The mark [6] stands for this setting: Sprague-Dawley, brain, intraperitoneal, rat, read-out: INT131 concentration in Brain.
Where [7] appears, read: Sprague-Dawley, kidney, intraperitoneal, rat, read-out: INT131 concentration in Kidney.
[8] abbreviates: Sprague-Dawley, liver, intraperitoneal, rat, read-out: INT131 concentration in Liver.
The mark [9] stands for this setting: Sprague-Dawley, small bowel, intraperitoneal, rat, read-out: INT131 concentration in Small bowel.
Where [10] appears, read: Sprague-Dawley, spinal cord, intraperitoneal, rat, read-out: INT131 concentration in Spinal cord.

“Also recorded” adds a separate entry of the source. Read-outs that look alike come from different tables or passages of the source.

With `O=S(=O)(Nc1cc(Cl)c(Oc2cnc3ccccc3c2)c(Cl)c1)c1ccc(Cl)cc1Cl` [INT131], the “clinical course from the 22nd day following immunization” value with EAE (1 mg/kg) is listed as “continued to improve slightly”; in the series with EAE (3 mg/kg), “remained stable”. Moreover, the results for the “relapse rate (percent of animals relapsed)” value in the series on EAE (1 mg/kg/d ip) and with EAE (3 mg/kg/d ip) were 9% and 16%, respectively. In addition, the “disease burden among treated animals that relapse” value with EAE (in comparison to vehicle treated mice) is reported as “exceptionally mild”. Moreover, the “symptoms of animals with EAE” value with EAE (mouse, in vivo) was “becoming and remaining mostly symptom-free”. Moreover, the effect on relapse result with EAE (treatment begun at first remission) is listed as “virtually blocks relapse”. Further, the clinical symptoms result in series [1] (treatment at the height of clinical disease) was “rapid improvement in clinical symptoms”. Further, in series [1] (treatment from day 20 (peak of disease), brainstems harvested day 32, either concentration, compared to vehicle), the “infiltrating CD45-positive leukocytes in brainstem” value is on record as “paucity of infiltrating CD45-positive leukocytes; also recorded: paucity of infiltrating white cells”. Also, the concentration at 1 h in series [2] (Sprague-Dawley, CSF, intraperitoneal, 1 h after ~50 mg/kg ip, rat, read-out: INT131 concentration in CSF) is 292 ng/g; in series [2] (Sprague-Dawley, blood, intraperitoneal, 1 h after ~50 mg/kg ip, rat, read-out: INT131 concentration in Blood), 4050 ng/g; in series [2] (Sprague-Dawley, brain, intraperitoneal, 1 h after ~50 mg/kg ip, rat, read-out: INT131 concentration in Brain), 569 ng/g; in series [2] (Sprague-Dawley, kidney, intraperitoneal, 1 h after ~50 mg/kg ip, rat, read-out: INT131 concentration in Kidney), 7730 ng/g; in series [2] (Sprague-Dawley, liver, intraperitoneal, 1 h after ~50 mg/kg ip, rat, read-out: INT131 concentration in Liver) it was 24400 ng/g; in series [2] (Sprague-Dawley, rat, neural compartments (brain tissue), intraperitoneal, one hour after single administration of ~50 mg/kg, read-out: average amount of INT131 in the neural compartments), less than 500 ng/g. The concentration at 1 h stood at 19700 ng/g in series [2] (Sprague-Dawley, small bowel, intraperitoneal, 1 h after ~50 mg/kg ip, rat, read-out: INT131 concentration in Small bowel) and 478 ng/g in series [2] (Sprague-Dawley, spinal cord, intraperitoneal, 1 h after ~50 mg/kg ip, rat, read-out: INT131 concentration in Spinal cord). Further, the concentration at 6 h in series [2] (setting [4]) is 2860 ng/g; in series [2] (setting [5]) it was 41800 ng/g; in series [2] (setting [6]) it was 5980 ng/g; in series [2] (setting [7]), 32900 ng/g; in series [2] (setting [8]), 141000 ng/g; in series [2] (setting [9]), 223000 ng/g. Also, the concentration at 6 h in series [2] (setting [10]) was 4810 ng/g. The concentration at 24 h in series [2] (setting [4]) amounted to 5300 ng/g; in series [2] (setting [5]), 17900 ng/g; in series [2] (setting [6]), 4650 ng/g; in series [2] (setting [7]) it was 15400 ng/g; in series [2] (setting [8]) it was 36400 ng/g; in series [2] (setting [9]), 34500 ng/g. Further, the concentration at 24 h in series [2] (setting [10]) came to 4310 ng/g. Besides, the Kp at 6 h in series [2] (Sprague-Dawley, rat, brain and spinal cord relative to blood, intraperitoneal, 50 mg/kg, 6 hours after injection, read-out: level of INT131 in brain and spinal cord relative to the level found in blood) is roughly 0.1. Also, the concentration at 1 day in series [2] (Sprague-Dawley, rat, brain and spinal cord, intraperitoneal, 50 mg/kg, 1 day after injection, read-out: absolute amount of INT131 in the brain and spinal cord) is greater than 4000 ng/g. Besides, in series [2] (Sprague-Dawley, rat, neural tissues relative to circulation (blood), intraperitoneal, 50 mg/kg, 24 hours after injection, read-out: level of INT131 in neural tissues relative to that found in the circulation), the Kp at 24 h came to 0.25. In addition, the “increase of the amount of INT131 in the neural tissues versus 1 hour” value in series [2] (at 6 and 24 hours) is “approximately 10 fold”. Besides, in series [2] (one hour after single administration of ~50 mg/kg), the “amount in neural compartments, fold less than that found in the circulation” value is “approximately 10 fold”.

For the compound `O=S(=O)(Nc1cc(Cl)c(Oc2cnc3ccccc3c2)c(Cl)c1)c1ccc(Cl)cc1Cl` [[^3H]INT131], in series [3], the “stability of radiolabeled material over the course of the study (HPLC)” value was “virtually all of the radiolabeled material was found in a single peak”.

(Values after patent publication US9539249B2, “PPAR gamma agonists for treatment of multiple sclerosis” (InteKrin Therapeutics, Inc., priority 2013, dated 2017).)
